Data set [1] deals with Mycobacterium tuberculosis. Put plainly: Antibacterial activity against Mycobacterium tuberculosis H37Rv-LP ATCC 25618 assessed reduction in bacterial growth by microplate alamar blue assay. Format: functional.
Data set [2] relates to Mycobacterium tuberculosis. Put plainly: Antibacterial activity against Mycobacterium tuberculosis H37Rv ATCC 27294 assessed as reduction in microbial growth in GAST media. Type of data set: functional.
A short description of data set [3]: Kinetic aqueous solubility of the compound in 2.5% DMSO/PBS at pH 7.4 incubated for 2 hrs by nephelometry analysis. The settings on record: PBS with 2.5% DMSO, read-out: Kinetic_solubility. Format: physicochemical.
Data set [4] deals with Mycobacterium tuberculosis. Put plainly: Antibacterial activity against Mycobacterium tuberculosis H37Rv ATCC assessed as reduction in bacterial growth by microdilution method. Type of data set: functional. (In general: Broth dilution looks for growth in wells or tubes with falling amounts of substance.)
For data set [5], the system named is Mycobacterium tuberculosis. Put plainly: Antibacterial activity against ATP synthesis in Mycobacterium tuberculosis H37Rv derived membrane vesicle incubated for 60 mins by luciferase based assay. Format: functional. As to conditions: 1 h.
For data set [6], the system named is Mycobacterium tuberculosis. The data set is described as follows: Inhibition of ATP synthesis in Mycobacterium tuberculosis H37Rv derived membrane vesicle incubated for 60 mins by luciferase based assay. Format: functional. As to conditions: 1 h.
The subject of data set [7] is Mycobacterium tuberculosis. The data set is described as follows: Antitubercular activity against Mycobacterium tuberculosis H37Rv incubated for 14 days in GAST/FE medium by Alamar blue assay. Type of data set: functional. The settings on record: 336 h, time 14 day.
Data set [8] concerns Mycobacterium tuberculosis. Put plainly: Antitubercular activity against Mycobacterium tuberculosis H37Rv assessed as growth inhibition in presence of ATP. Format: functional.
In data set [9] the test system is Mycobacterium tuberculosis. Put plainly: Antibacterial activity against Mycobacterium tuberculosis H37Rv assessed as inhibition of bacterial growth by microdilution method. Type of data set: functional.
Data set [10] has as its system Mycobacterium tuberculosis. The data set is described as follows: Antibacterial activity against Mycobacterium tuberculosis cytochrome bd oxidase assessed as reduction in bacterial growth in the presence of resazurin reduction under microplate alamarBlue assay. Format: functional. In general terms: Alamar Blue is a resazurin reagent that responds to reducing activity.

Data set [11] concerns Mycobacterium tuberculosis. The data set is described as follows: Antibacterial activity against Mycobacterium tuberculosis cytochrome bd oxidase assessed as reduction in bacterial growth in the presence of resazurin reduction under by microdilution method. Type of data set: functional.
In data set [12] the test system is Mycobacterium tuberculosis. The data set is described as follows: Antibacterial activity against Mycobacterium tuberculosis H37Rv assessed as reduction in bacterial growth in the presence of resazurin reduction under microplate alamarBlue assay. Type of data set: functional.
In data set [13] the test system is Mycobacterium tuberculosis. The data set is described as follows: Antimycobacterial activity against Mycobacterium tuberculosis H37Rv. Type of data set: functional, organism-based.
Data set [14] concerns Mycobacterium tuberculosis. Put plainly: Antibacterial activity against Mycobacterium tuberculosis H37Rv-MA ATCC 27294 assessed reduction in bacterial growth by microplate alamar blue assay. Type of data set: functional.
Data set [15] concerns Mycobacterium tuberculosis. Put plainly: Antibacterial activity against Mycobacterium tuberculosis H37Rv ATCC 25618 assessed as complete inhibition of bacterial growth measured after 5 days by spectrophotometry method. Format: functional. As to conditions: H37Rv ATCC 25618, 120 h, time 5 day.
A short description of data set [16]: Lipophilicity, log P of the compound at pH 6.5. As to conditions: buffer. Format: physicochemical.
For data set [17], the system named is Mycobacterium tuberculosis. The data set is described as follows: Antitubercular activity against Mycobacterium tuberculosis H37Rv infected in THP-1 cells assessed as intracellular bacterial growth measured over 6 days. Format: functional. The settings on record: 144 h, time 6 day.
In data set [18] the test system is Mycobacterium tuberculosis. The data set is described as follows: Antimycobacterial activity against Mycobacterium tuberculosis H37Rv after 14 days. Format: functional. The settings on record: 336 h, time 14 day.
Data set [19] in a line: Inhibition of Mycobacterium tuberculosis TFP incubated for 60 mins by UPLC based assay.
Data set [20] deals with Mycolicibacterium smegmatis. The data set is described as follows: Antibacterial activity against Mycobacterium smegmatis assessed as inhibition of bacterial growth in the presence of NADH II dehydrogenase. Type of data set: functional, organism-based.
A short description of data set [21]: Inhibition of Mycobacterium tuberculosis H37Rv ATP synthase.
Data set [22] relates to Mycobacterium tuberculosis. The data set is described as follows: Antibacterial activity against Mycobacterium tuberculosis H37Rv in the presence of ATP synthase. Format: functional.
The test system of data set [23] is Mycobacterium tuberculosis. The data set is described as follows: Antibacterial activity against Mycobacterium tuberculosis H37Rv after 7 days by resazurin dye-based assay. Type of data set: functional. The settings on record: time 7 day.
The test system of data set [24] is HepG2. Put plainly: Cytotoxicity against human HepG2 cells assessed as cell viability at 100 uM by MTT assay. Type of data set: functional. The settings on record: read-out: TD50 (the source's name). A general note: Tetrazolium dyes change colour on reduction, which living cells bring about.
For data set [25], the system named is Mycobacterium tuberculosis. The data set is described as follows: Antitubercular activity against Mycobacterium tuberculosis H37Rv assessed as inhibition of bacterial growth by fluorescence based analysis. Format: functional.
The nature of data set [26]: Inhibition of Mycobacterium smegmatis ptpB expressed in Escherichia coli […] cells in the presence of ATP cells using 6,8-difluoromethylumbelliferyl phosphate as substrate incubated for 30 mins by fluorescence based assay. Further details: species or system Mycolicibacterium smegmatis.
Data set [27] concerns Mycobacterium tuberculosis. Put plainly: Antibacterial activity against Mycobacterium tuberculosis H37Rv assessed as reduction bacterial growth after 14 days by micro broth dilution method. The settings on record: 336 h, time 14 day. Format: functional.
The test system of data set [28] is Mycobacterium tuberculosis. The data set is described as follows: Antibacterial activity against Mycobacterium tuberculosis H37Rv in macrophages by CLSI broth microdilution method. Format: functional.
The test system of data set [29] is Mycobacterium tuberculosis. The data set is described as follows: Antibacterial activity against Mycobacterium tuberculosis H37Rv assessed as greater inhibition of microbial growth in presence of depletion of ATP levels by microplate alamar blue assay. Format: functional, organism-based.
For data set [30], the system named is Mycobacterium tuberculosis. The data set is described as follows: Antibacterial activity against Mycobacterium tuberculosis assessed as inhibition of bacterial growth in the presence of NADH II dehydrogenase. Type of data set: functional, organism-based.

Molecules are shown by their SMILES. In brackets after ≈: the same amount, converted by molar mass. Starred links: 1 amine or outer side, 2 acyl side, 3 side chain; linkers in the order of their positions; H or OH if unused. Non-standard residues stand in square brackets, D forms with d. Residues, ends and D or L forms follow the SMILES beside them. ξ: configuration not given here. *: point of attachment. X1 = CCC(=O)C[C@@H](O)C[C@@H](C)C[C@H](N[*:1])C(=O)[*:2]; Alaψ(CH2NMeCH2CH2OH) = C[C@@H](CN(C)CCO)N*; Decanoyl(2R-Me) = CCCCCCCC[C@@H](C)C(=O)*; Ile(3ξ) = CCC(C)[C@H](N)C(=O)O; ξβ3hP = O=C(O)CC1CCCN1; Aib = CC(C)(N)C(=O)O Some results are limits rather than exact numbers.

As usually defined, the MIC50 is the lowest concentration that inhibits either 50% of growth or 50% of the strains tested, depending on the study. High values mean weaker potency, low ones greater potency. Compound `CCc1nc2ccc(C)cc2n1CCCCOc1ccccc1` had an MIC50 in [1] of 0.34 µM (≈ 0.105 µg/mL). By MIC is commonly meant the least concentration at which growth counts as inhibited. For `O=C(CSc1nc2ccccc2c(=O)[nH]1)NC1CCC(F)(F)CC1`, in data set [2], the minimum inhibitory concentration (MIC) is 0.5 µM. In the case of `O=C(CSc1nc2ccccc2c(=O)[nH]1)NC1CCCCC1`, the minimal inhibitory concentration (MIC) in data set [2] was found to be 0.3 µM. In addition, the solubility kinetic at 2 h in data set [3] is 83 µM (≈ 26.3 µg/mL). Broadly, the IC90 is the point of the concentration-response curve where the effect stands at 90%. As for `O=C(CSc1nc2ccccc2c(=O)[nH]1)NCC1CCC(F)(F)CC1`, in data set [2], the MIC was found to be 0.8 µM. The concentration for an effect of 90% (IC90) in data set [4] was found to be 5100 nM. Also, the solubility kinetic at 2 h in data set [3] is 250 µM (≈ 91.9 µg/mL). The IC50 is the midpoint of a concentration-inhibition curve. For `Nc1c2c(nc3sc4c(c13)CCCCC4)CCCC2`, in [5], the MIC50 stood at 1.7 µM (≈ 0.463 µg/mL). Further, in [6], the IC50 was determined as 3400 nM. Compound `Cc1ccc(-c2nc3ccc(C)cn3c2CC(=O)N(C)C)cc1` [ZOLPIDEM] registered an MIC in data set [7] of 10 µM (≈ 3.07 µg/mL). With `O=C(CNC1CCCCC1)N(c1ccccc1)c1ccccc1`, the minimal inhibitory concentration (MIC) in data set [8] worked out at 5.23 µg/mL. `COc1ccc(CNC(=O)c2c(C)nc3ccc(Br)cn23)cc1`: the MIC in [9] was more than 50 µM; in [10] it was less than 0.024 µM; in [11], less than 0.024 µM; in [12], 0.15 µM. With `O=C(CNC1CCCC1)N(c1ccccc1)c1ccccc1`, the MIC in data set [8] turned out to be 6.25 µg/mL.

In the case of `Cc1ccn2c(C(=O)NCc3cccc(OC(C)C)c3)c(C)nc2c1`, the half-inhibitory concentration (IC50) in [13] came out at 390 nM. Compound `CCc1nc2ccccc2n1CCCCSc1nc(-c2ccccc2)cs1` came in with an MIC50 in data set [14] of 5.3 µM (≈ 2.09 µg/mL). In general, MIC99 refers to an inhibitory concentration at the 99% level, which refers to growth in some studies and to a panel of isolates in others. Consider `CCc1nc2ccccc2n1CCCCNc1ccccc1`, for which the MIC99 in [15] was determined as 0.47 µM (≈ 0.138 µg/mL). For `Cc1ccn2c(C(=O)NCc3ccccc3)c(C)nc2c1`, inhibition in data set [13] was half-maximal at 150 nM (IC50). For orientation: logD means lipophilicity at a set pH, counting ionised and neutral species. High values mean a more lipophilic compound, low ones a more hydrophilic compound. Turning to `CCCCCCCC[C@@H](C)C(=O)N1CCCC1CC(=O)N[C@@H](C[C@H](C)C[C@H](O)CC(=O)CC)C(=O)NC(C)(C)C(=O)NC(C)(C)C(=O)N[C@H](C(=O)N[C@H](C(=O)NC(C)(C)C(=O)NC(C)(C)C(=O)N[C@@H](C)CN(C)CCO)C(C)C)C(C)CC` (stereo partly drawn) ({Decanoyl(2R-Me)}-[ξβ3hP][X1][Aib][Aib][Ile(3ξ)]V[Aib][Aib]-{Alaψ(CH2NMeCH2CH2OH)}), in data set [16], the pH-dependent lipophilicity (logD) was found to be 4.37. Take `CCc1nc2ccc(C)cc2n1CCCNc1ccc(C)cc1`: in data set [15], the MIC99 came out at 0.061 µM (≈ 0.0188 µg/mL). Take `O=C(/C=C/c1cccs1)N1CCN(Cc2ccc3c(c2)OCO3)CC1`: the results for the MIC in data set [17] and in data set [18] were 0.4 µM (≈ 0.143 µg/mL) and 0.05 µM (≈ 0.0178 µg/mL), respectively. This compound returned an IC50 in [19] of 0.1 µg/mL (≈ 0.281 µM). With `O=C(CSc1nc2cccc(F)c2c(=O)[nH]1)NC1CCC(F)(F)CC1`, the IC50 in data set [20] was determined as 10.7 nM. Take `O=C(/C=C/c1cscn1)N1CCN(Cc2ccc3c(c2)OCO3)CC1`: the MIC in data set [17] amounted to 0.6 µM (≈ 0.214 µg/mL); in data set [18], 0.1 µM (≈ 0.0357 µg/mL).

The compound `CN(C)Cc1ccc(-c2cc3cc(Br)ccc3nc2OCc2ccncc2)cc1` displayed a 50% inhibitory concentration (IC50) in data set [21] of 20300 nM. Also, the minimal inhibitory concentration (MIC) in data set [22] is 0.43 µg/mL. On to `CCSc1nc(NC)c2ccc(F)c(F)c2n1`, for which the TD50 in data set [23] came to 0.02 µg/mL.

In the case of `CCc1ccn2c(C(=O)NCc3ccc(C)cc3)c(C)nc2c1`, 0.004 µM (≈ 0.00123 µg/mL) was the least that counted as inhibitory in data set [7] (MIC). Turning to `CCNc1nc(SCC)nc2ccccc12`, the TD50 in data set [23] worked out at 0.09 µg/mL. Further, the CC50 in data set [24] was more than 5 µg/mL. In data set [21], `CN(C)CCN1CCN(c2ccc(-c3cc4cc(Br)ccc4nc3OCc3ccc4ccccc4c3)cc2)CC1` registered a half-inhibitory concentration (IC50) of 38800 nM. Also, in data set [22], the minimal inhibitory concentration (MIC) turned out to be 0.44 µg/mL. With `Cc1ccc2nc(C)c(C(=O)NCc3ccc(Cl)nc3)n2c1`, in [25], the minimum inhibitory concentration (MIC) was 5 µM (≈ 1.57 µg/mL). As for `COc1ccc(/C=C2/S/C(=N/N=C/c3ccccc3O)NC2=O)cc1`, the IC50 in [26] was determined as 312 nM. For the same compound, the figures for the MIC90 in [27] and in data set [28] were 0.5 µg/mL (≈ 1.41 µM) and 4 µg/mL (≈ 11.3 µM), respectively. As for `CCCCNc1nc(CC)nc2sc(C)cc12`, the IC50 in data set [29] worked out at 840 nM.

On to `Cc1ccc2nc(C)c(C(=O)NCc3ccc(C(F)(F)F)cc3)n2c1`, for which the MIC in data set [25] was found to be 0.03 µM (≈ 0.0104 µg/mL). Turning to `C=CCN1NC(C(=O)N2CCSCC2)C2CC(NCc3ccc(Cl)s3)CCC21` (stereo not drawn), the concentration for half-maximal inhibition (IC50) in data set [30] is 64.7 nM.

These data come from ChEMBL document CHEMBL5226287, “Small organic molecules targeting the energy metabolism of Mycobacterium tuberculosis” (Eur J Med Chem, 2021).
